Measured values published in US12396459B2, “Synergistically effective herbicide composition comprising pyridate and at least one defined 4-HPPD inhibitor” (BELCHIM CROP PROTECTION NV, priority 2018, dated 2025).

Legend:
Type in all cases: in vivo
Brassica napus = assay: Field trial post-emergence in maize: BRSNN; conditions: # = 1, g a.c./ha: PYR 300, MES 100, PYR + MES 300 + 90
Protocol: (§1) Herbicidal activity of herbicide compositions according to the first aspect of the present invention with regard to different types of unwanted vegetation was determined during trials performed on test fields (field trials). Individual compositions comprising pyridate and individual compositions comprising a defined 4-HPPD inhibitor are compared with a herbicide composition according to the invention comprising both pyridate and a defined 4-HPPD inhibitor. The expected activity of the combination of the active compounds pyridate and a defined 4-HPPD inhibitor is calculated according to above mentioned calculation method by Colby, in order to evaluate a synergistic effect between pyridate and a defined 4-HPPD inhibitor.
(§2) Herbicidal activity was determined by applying herbicide compositions on emerged unwanted vegetation on fields where maize was cultivated. Pyridate and a defined 4-HPPD inhibitor were applied as a tank mixture by mixing these active compounds prior to use in a spray tank. The corresponding mixture was in the form of a spray liquor. Besides, spray liquors of individual compositions comprising pyridate and of individual compositions comprising a defined 4-HPPD inhibitor were used. Test plants of unwanted vegetation with a growth stage corresponding to BBCH 10-18 (according to the extended BBCH-scale) were sprayed with the active compound preparations such that particular desired amounts of active compounds are applied per unit area. Spray liquor was diluted with water to arrive at an application volume of 50 to 450 L/ha. At a specified number of days after application (DAA), the degree of damage to the unwanted vegetation is rated in % of plants of unwanted vegetation that were killed, which was assessed by visually controlling the plants.

Poa annua = assay: Field trial post-emergence in maize: POAAN; conditions: for herbicidal effect (h.e.): g a.c./ha: PYR 300, MES 100, PYR + MES 300 + 90
Protocol: as §1, §2

Galium aparine = assay: Field trial post-emergence in maize: GALAP
Protocol: as §1, §2
(§3) Example 1 concerns a herbicide composition comprising a combination of pyridate and mesotrione, which was applied post-emergence on unwanted vegetation on a field where maize was cultivated, according to the test conditions mentioned above.

Sorghum halepense = assay: Field trial post-emergence in maize: SORHA; conditions: 7-14 DAA; # = 1; g a.c./ha: PYR 300, MES 100, PYR + MES 300 + 90
Protocol: as §1
(§4) Herbicidal activity was determined by applying herbicide compositions on emerged unwanted vegetation on fields where maize was cultivated. Pyridate and a defined 4-HPPD inhibitor were applied as a tank mixture by mixing these active compounds prior to use in a spray tank. The corresponding mixture was in the form of a spray liquor. […] At a specified number of days after application (DAA), the degree of damage to the unwanted vegetation is rated in % of plants of unwanted vegetation that were killed, which was assessed by visually controlling the plants.

Setaria verticillata = assay: Examples 6-8 herbicidal effect: SETVE; conditions: 7 DAA
Matricaria chamomilla = assay: Examples 6-8 herbicidal effect: MATCH; conditions: 7 DAA
Fallopia convolvulus = assay: Field trial post-emergence in maize: POLCO
Protocol: as §1, §2

Convolvulus arvensis = assay: Field trial post-emergence in maize: CONAR
Protocol: as §1, §2, §3

Stachys arvensis = assay: Field trial post-emergence in maize: STAAR; conditions: 7-14 DAA; # = 1; g a.c./ha: PYR 300, MES 100, PYR + MES 300 + 90
Protocol: as §1, §4

Portulaca oleracea = assay: Field trial post-emergence in maize: POROL; conditions: # = 1, g a.c./ha: PYR 300, MES 100, PYR + MES 300 + 90
Protocol: as §1, §2

Echinochloa crus-galli = assay: Field trial post-emergence in maize: ECHCG; conditions: for herbicidal effect (h.e.): g a.c./ha: PYR 300, MES 100, PYR + MES 300 + 90
Protocol: as §1, §2

Erodium ciconium = assay: Field trial post-emergence in maize: EROCC
Protocol: as §1, §2, §3

Veronica persica = assay: Examples 6-8 herbicidal effect: VERPE; conditions: 7 DAA
Solanum nigrum = assay: Examples 6-8 herbicidal effect: SOLNI; conditions: 7 DAA
Amaranthus retroflexus = assay: Field trial post-emergence in maize: AMARE; conditions: 13-14 DAA, # = 1
Protocol: as §1, §2

Capsella bursa-pastoris = assay: Field trial post-emergence in maize: CAPBP
Protocol: as §1, §2

Datura stramonium = assay: Field trial post-emergence in maize: DATST; conditions: 7-14 DAA; # = 2; g a.c./ha: PYR 300, MES 100, PYR + MES 300 + 90
Protocol: as §1, §4

Chenopodium album = assay: Examples 6-8 herbicidal effect: CHEAL; conditions: 7 DAA
[1] = g a.c./ha: PYR 10, TEM 22, PYR + TEM 10 + 100
[2] = g a.c./ha: PYR 300, PYR + MES 300 + 80
[3] = g a.c./ha: PYR 300, SCT 300, PYR + SCT 300 + 300
[4] = g a.c./ha: PYR 300, TEM 100, PYR + TEM 300 + 100
[5] = g a.c./ha: PYR 450, SCT 450, PYR + SCT 300 + 450
[6] = g a.c./ha: PYR 600, PYR + SCT 600 + 300
[7] = g a.c./ha: PYR 900, TEM 44, PYR + TEM 900 + 44

Compound: CCCCCCCCSC(=O)Oc1cc(Cl)nnc1-c1ccccc1 [PYR, (6-chloro-3-phenylpyridazin-4-yl) octylsulfanylformate]
- herbicidal effect (h.e.) (Brassica napus; 7-14 DAA): 50%
- herbicidal effect (h.e.) (Brassica napus; 18-28 DAA): 11%
- herbicidal effect (h.e.) (Brassica napus; 31-48 DAA): 6%
- herbicidal effect (h.e.) (Poa annua; 7-14 DAA, # = 2): 25%
- herbicidal effect (h.e.) (Poa annua; 18-28 DAA, # = 3): 17%
- herbicidal effect (h.e.) (Poa annua; 31-48 DAA, # = 2): 17%
- PYR h.e. (Poa annua; POAAN 14-20 DAA 300 g a.c./ha): 7%
- PYR h.e. (Poa annua; POAAN 14-20 DAA 600 g a.c./ha): 17%
- PYR h.e. (Poa annua; POAAN 14-20 DAA 900 g a.c./ha): 36%
- PYR h.e. (Poa annua; POAAN 24-31 DAA 300 g a.c./ha): 5%
- PYR h.e. (Poa annua; POAAN 24-31 DAA 600 g a.c./ha): 13%
- PYR h.e. (Poa annua; POAAN 24-31 DAA 900 g a.c./ha): 28%
- PYR h.e. (Galium aparine; GALAP 14-20 DAA 300 g a.c./ha): 20%
- PYR h.e. (Galium aparine; GALAP 14-20 DAA 600 g a.c./ha): 30%
- PYR h.e. (Galium aparine; GALAP 14-20 DAA 900 g a.c./ha): 35%
- PYR h.e. (Galium aparine; GALAP 24-31 DAA 300 g a.c./ha): 18%
- PYR h.e. (Galium aparine; GALAP 24-31 DAA 600 g a.c./ha): 30%
- PYR h.e. (Galium aparine; GALAP 24-31 DAA 900 g a.c./ha): 38%
- herbicidal effect (h.e.) (Sorghum halepense): 58%
- herbicidal effect (h.e.) (Setaria verticillata; [1]): 0%
- herbicidal effect (h.e.) (Setaria verticillata; [2]): 0%
- herbicidal effect (h.e.) (Setaria verticillata; [3]): 10%
- herbicidal effect (h.e.) (Setaria verticillata; [4]): 0%
- herbicidal effect (h.e.) (Setaria verticillata; [5]): 7%
- herbicidal effect (h.e.) (Setaria verticillata; [6]): 10%
- herbicidal effect (h.e.) (Setaria verticillata; [7]): 0%
- herbicidal effect (h.e.) (Matricaria chamomilla; [1]): 0%
- herbicidal effect (h.e.) (Matricaria chamomilla; [2]): 0%
- herbicidal effect (h.e.) (Matricaria chamomilla; [3]): 0%
- herbicidal effect (h.e.) (Matricaria chamomilla; [4]): 0%
- herbicidal effect (h.e.) (Matricaria chamomilla; [5]): 0%
- herbicidal effect (h.e.) (Matricaria chamomilla; [6]): 0%
- herbicidal effect (h.e.) (Matricaria chamomilla; [7]): 0%
- herbicidal effect (h.e.) (Fallopia convolvulus; 7-14 DAA, # = 5, g a.c./ha: PYR 300, MES 100, PYR + MES 300 + 90): 26%
- herbicidal effect (h.e.) (Fallopia convolvulus; 13-14 DAA, # = 1, g a.c./ha: PYR 450, MES 144, PYR + MES 450 + 144): 23%
- herbicidal effect (h.e.) (Fallopia convolvulus; 18-28 DAA, # = 8, g a.c./ha: PYR 300, MES 100, PYR + MES 300 + 90): 32%
- herbicidal effect (h.e.) (Fallopia convolvulus; 31-48 DAA, # = 8, g a.c./ha: PYR 300, MES 100, PYR + MES 300 + 90): 27%
- PYR h.e. (Fallopia convolvulus; POLCO 14-20 DAA 300 g a.c./ha): 31%
- PYR h.e. (Fallopia convolvulus; POLCO 14-20 DAA 600 g a.c./ha): 34%
- PYR h.e. (Fallopia convolvulus; POLCO 14-20 DAA 900 g a.c./ha): 47%
- PYR h.e. (Fallopia convolvulus; POLCO 24-31 DAA 300 g a.c./ha): 29%
- PYR h.e. (Fallopia convolvulus; POLCO 24-31 DAA 600 g a.c./ha): 29%
- PYR h.e. (Fallopia convolvulus; POLCO 24-31 DAA 900 g a.c./ha): 43%
- PYR h.e. (Convolvulus arvensis; CONAR 14-20 DAA 300 g a.c./ha): 35%
- PYR h.e. (Convolvulus arvensis; CONAR 14-20 DAA 600 g a.c./ha): 40%
- PYR h.e. (Convolvulus arvensis; CONAR 14-20 DAA 900 g a.c./ha): 45%
- PYR h.e. (Convolvulus arvensis; CONAR 24-31 DAA 600 g a.c./ha): 48%
- PYR h.e. (Convolvulus arvensis; CONAR 24-31 DAA 900 g a.c./ha): 45%
- herbicidal effect (h.e.) (Stachys arvensis): 35%
- herbicidal effect (h.e.) (Portulaca oleracea; 7-14 DAA): 30%
- herbicidal effect (h.e.) (Portulaca oleracea; 18-28 DAA): 11%
- herbicidal effect (h.e.) (Echinochloa crus-galli; 7-14 DAA, # = 9): 20%
- herbicidal effect (h.e.) (Echinochloa crus-galli; 18-28 DAA, # = 14): 23%
- herbicidal effect (h.e.) (Echinochloa crus-galli; 31-48 DAA, # = 13): 23%
- PYR h.e. (Echinochloa crus-galli; ECHCG 14-20 DAA 300 g a.c./ha): 10%
- PYR h.e. (Echinochloa crus-galli; ECHCG 14-20 DAA 600 g a.c./ha): 23%
- PYR h.e. (Echinochloa crus-galli; ECHCG 14-20 DAA 900 g a.c./ha): 31%
- PYR h.e. (Echinochloa crus-galli; ECHCG 24-31 DAA 300 g a.c./ha): 0%
- PYR h.e. (Echinochloa crus-galli; ECHCG 24-31 DAA 600 g a.c./ha): 3%
- PYR h.e. (Echinochloa crus-galli; ECHCG 24-31 DAA 900 g a.c./ha): 20%
- PYR h.e. (Erodium ciconium; EROCC 14-20 DAA 300 g a.c./ha): 89%
- PYR h.e. (Erodium ciconium; EROCC 14-20 DAA 600 g a.c./ha): 96%
- herbicidal effect (h.e.) (Veronica persica; [1]): 0%
- herbicidal effect (h.e.) (Veronica persica; [2]): 8%
- herbicidal effect (h.e.) (Veronica persica; [3]): 10%
- herbicidal effect (h.e.) (Veronica persica; [4]): 10%
- herbicidal effect (h.e.) (Veronica persica; [5]): 15%
- herbicidal effect (h.e.) (Veronica persica; [6]): 10%
- herbicidal effect (h.e.) (Veronica persica; [7]): 50%
- herbicidal effect (h.e.) (Solanum nigrum; [1]): 0%
- herbicidal effect (h.e.) (Solanum nigrum; [2]): 11%
- herbicidal effect (h.e.) (Solanum nigrum; [3]): 10%
- herbicidal effect (h.e.) (Solanum nigrum; [4]): 10%
- herbicidal effect (h.e.) (Solanum nigrum; [5]): 10%
- herbicidal effect (h.e.) (Solanum nigrum; [6]): 28%
- herbicidal effect (h.e.) (Solanum nigrum; [7]): 100%
- herbicidal effect (h.e.) (Amaranthus retroflexus; g a.c./ha: PYR 450, MES 144, PYR + MES 450 + 144): 72%
- herbicidal effect (h.e.) (Amaranthus retroflexus; g a.c./ha: PYR 450, TOP 12.4, PYR + TOP 450 + 12.4): 72%
- herbicidal effect (h.e.) (Capsella bursa-pastoris; 7-14 DAA, # = 3, g a.c./ha: PYR 300, MES 100, PYR + MES 300 + 90): 51%
- PYR h.e. (Capsella bursa-pastoris; CAPBP 14-20 DAA 300 g a.c./ha): 59%
- PYR h.e. (Capsella bursa-pastoris; CAPBP 14-20 DAA 600 g a.c./ha): 65%
- PYR h.e. (Capsella bursa-pastoris; CAPBP 14-20 DAA 900 g a.c./ha): 73%
- PYR h.e. (Capsella bursa-pastoris; CAPBP 24-31 DAA 300 g a.c./ha): 53%
- PYR h.e. (Capsella bursa-pastoris; CAPBP 24-31 DAA 600 g a.c./ha): 61%
- PYR h.e. (Capsella bursa-pastoris; CAPBP 24-31 DAA 900 g a.c./ha): 73%
- herbicidal effect (h.e.) (Datura stramonium): 70%
- herbicidal effect (h.e.) (Chenopodium album; [1]): 0%
- herbicidal effect (h.e.) (Chenopodium album; [2]): 6%
- herbicidal effect (h.e.) (Chenopodium album; [3]): 3%
- herbicidal effect (h.e.) (Chenopodium album; [4]): 5%
- herbicidal effect (h.e.) (Chenopodium album; [5]): 10%
- herbicidal effect (h.e.) (Chenopodium album; [6]): 22%
- herbicidal effect (h.e.) (Chenopodium album; [7]): 90%
